Measurements taken from patent publication US7547676B2, “Antagonist peptides to the C5A chemotactic function of vitamin D binding protein” (The Research Foundation of State University of New York, priority 2004, dated 2009).

Legend:
DBP = molecular target: T1, DBP (Homo sapiens, UniProt P02774); details: Cooke and Haddad, 1989; cited from earlier work
T1 sequence (P02774 17-474): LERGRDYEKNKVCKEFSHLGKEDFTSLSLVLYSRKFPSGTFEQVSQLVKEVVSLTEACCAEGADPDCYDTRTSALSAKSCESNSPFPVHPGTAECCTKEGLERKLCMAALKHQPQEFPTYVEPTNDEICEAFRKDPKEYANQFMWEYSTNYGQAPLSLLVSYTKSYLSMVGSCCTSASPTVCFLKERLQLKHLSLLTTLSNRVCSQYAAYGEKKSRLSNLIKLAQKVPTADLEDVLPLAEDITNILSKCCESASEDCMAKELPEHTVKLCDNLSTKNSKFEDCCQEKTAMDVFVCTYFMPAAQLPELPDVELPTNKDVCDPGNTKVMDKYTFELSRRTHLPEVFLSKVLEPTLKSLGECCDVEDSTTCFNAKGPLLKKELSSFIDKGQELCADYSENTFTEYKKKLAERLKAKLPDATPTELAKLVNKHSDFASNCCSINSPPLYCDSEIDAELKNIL

neutrophils [1] = assay: Neutrophil chemotaxis assay, C5a co-chemotactic activity of DBP; type: cell-based, human; set-up: effect on co-chemotactic activity of DBP, dose-response: dose or concentration left out as unconfirmed
Excerpt: Isolation of human neutrophils Neutrophils, serum, and plasma were isolated from the venous blood of healthy, medication-free, paid volunteers who gave informed consent. The Institutional Review Board of Stony Brook University approved this procedure. These procedures have been described in detail previously (Kew et al., 1995a).
Neutrophil chemotaxis assay Cell movement was quantitated using a 48 well microchemotaxis chamber (Neuroprobe, Cabin John, Md.) and 5.0 μm pore size cellulose nitrate filters (purchased from Neuroprobe) as previously described (Kew et al., 1995a). Cell suspensions and chemotactic factors were prepared and/or diluted in the chemotaxis assay buffer (Hank's balanced salt solution supplemented with 10 mM HEPES (pH 7.4) and 1% bovine serum albumin). Cell movement was quantitated microscopically by measuring the distance in microns (μm) that the leading front of cells had migrated into the filter according to the method described by Zigmond and Hirsch (1973). In each experiment, five fields per duplicate filter were measured at 400× magnification.

[2] = test system: Alkaline phosphatase activity on the plasma membrane of viable neutrophils; assay: Neutrophil alkaline phosphatase assay (DiFMUP); type: cell-based, human; details: 5×10^6 cells pretreated with 10 nM 1,25(OH)2D3 or 10 μM SOV; untreated 11,107±1335 units
Method: Neutrophil alkaline phosphatase assay Alkaline phosphatase activity on the plasma membrane of viable neutrophils was measured using the fluorescent substrate 6,8-difluoro-4-methylumbelliferyl phosphate (DiFMUP) and the EnzChek Phosphatase Assay Kit (Molecular Probes, Eugene, Oreg.). Neutrophils (5×10^6 cells) were suspended in 50 μl of 0.1M sodium acetate (pH 5.0) and were immediately added to microtiter plates containing 50 μl of 0.2mM DiFMUP substrate and incubated for 5 min at 22° C. in the dark. A standard curve was generated using known amounts of the fluorescent compound 6,8-difluoro-7-hydroxy-4-methylcoumarin. Fluorescence was measured at 358 nm excitation and 455 nm emission using a SpectraMax M2 microtiter plate reader (Molecular Devices, Sunnydale, Calif.).

neutrophils [3] = assay: Neutrophil viability; type: cell-based, human; details: 10 μM SOV

Structure (SMILES) | affinity for DBP relative to 1,25(OH)2D3 (DBP) | effect on co-chemotactic activity of DBP, dose-response (neutrophils [1]; bound to DBP) | effect on co-chemotactic activity of DBP (neutrophil chemotaxis toward C5a) (neutrophils [1]; ligand bound to DBP, 1,25(OH)2D3 100 nM) | cells ability to migrate towards C5a plus DBP (neutrophils [1]; SOV alone) | reversal of the inhibitory effect of 1,25(OH)2D3 on the C5a co-chemotactic activity of DBP (neutrophils [1]; neutrophils pretreated with 10 μM SOV) | neutrophil AP activity [2] | cell viability (neutrophils [3])
C=C1CC[C@H](O)C/C1=C/C=C1\CCC[C@]2(C)[C@@H]([C@H](C)CCCC(C)(C)O)CC[C@@H]12 [25(OH)D3] | 10 fold | no effect on co-chemotactic activity | did not alter its ability to enhance neutrophil chemotaxis toward C5a | – | – | – | –
[Na+].[Na+].[Na+].[O]=[V]([O-])([O-])[O-] [SOV, sodium orthovanadate] | – | – | – | no effect | completely reverses the inhibitory effect | 667±111 units | did not alter cell viability
